Experimental data from US12545652B2, “Crystalline forms of a TYK2 inhibitor” (Sareum Limited, priority 2020, dated 2026).

Test: Anti-solvent addition crystallisation at 60° C., observations and form fate by XRPD
Format: physicochemical
Details: for Crystalline Form fate by XRPD: Addition at 60° C.
Description: The equilibration of Form A in a range of solvents with thermal modulation indicated a range of suitable solvents and anti-solvents. Consequently, Form A was dissolved in a range of four solvents at an elevated temperature, clarified and charged with anti-solvent at the elevated temperature to assess the propensity of the compound towards anti-solvent-driven crystallisation.
2-(2,6-dichlorophenyl)-5-[4-(1,1-dioxo-1,4-thiazinane-4-carbonyl)anilino]oxazole-4-carboxamide Form A, 4×150-152 mg, was weighed into four crystallisation tubes. Four different solvents (see Table 8) were then charged to the solids and the resulting mixtures heated to 60° C. Where suspensions persisted, additional solvent was charged to achieve dissolution. Upon dissolution of the four mixtures, the solutions were clarified and aliquots containing ca. 30 mg of the compound were charged to four crystallisation tubes.
To each of the four aliquots was charged an anti-solvent (see Table 8), ca. 5 vol., at 60° C. and immediate observations were made. Observations were made after equilibration for 1 hour before additional anti-solvent, 5 vol., was charged to all mixtures. Where suspensions or immiscible mixtures had formed, no further anti-solvent was charged. To all solutions and hazes, additional anti-solvent up to 20 vol. total charge was added.
The mixtures were equilibrated at 60° C. for another hour before cooling to 25° C. over ca. 3 hours and equilibrated for ca. 14½ hours. […] Upon isolation, all solids were dried in vacuo under air for ca. 1 hour and then dried in the oven in vacuo at 45° C. for 70 hours.

Observation on outcome (ID B4, THF 25 vol., 2-Chlorobutane, 60° C., 5 vol. anti-solvent, Immediate): Soln.
Observation on outcome (ID B4, THF 25 vol., 2-Chlorobutane, 60° C., 10 vol. anti-solvent): Susp.
Observation on outcome (ID C1, Nitromethane 50 vol., Cyclohexane, 25° C., 20 vol, 19 Hrs): Bi. Susp.
Observation on outcome (ID C1, Nitromethane 50 vol., Cyclohexane, 60° C., 5 vol. anti-solvent, 1 Hr): Immiscible
Observation on outcome (ID C1, Nitromethane 50 vol., Cyclohexane, 60° C., 5 vol. anti-solvent, Immediate): Immiscible
Observation on outcome (ID C1, Nitromethane 50 vol., Cyclohexane, 60° C., 10 vol. anti-solvent): Immiscible
Observation on outcome (ID C2, Nitromethane 50 vol., Heptane, 25° C., 20 vol, 19 Hrs): Bi. Susp.
Observation on outcome (ID C2, Nitromethane 50 vol., Heptane, 60° C., 5 vol. anti-solvent, 1 Hr): Soln.
Observation on outcome (ID C2, Nitromethane 50 vol., Heptane, 60° C., 5 vol. anti-solvent, Immediate): Soln.
Observation on outcome (ID C2, Nitromethane 50 vol., Heptane, 60° C., 10 vol. anti-solvent): Soln.
Observation on outcome (ID C2, Nitromethane 50 vol., Heptane, 60° C., 15 vol. anti-solvent): Soln.
Observation on outcome (ID C2, Nitromethane 50 vol., Heptane, 60° C., 20 vol. anti-solvent): Soln.
Observation on outcome (ID C3, Nitromethane 50 vol., Benzotrifluoride, 25° C., 20 vol, 19 Hrs): Susp.
Observation on outcome (ID C3, Nitromethane 50 vol., Benzotrifluoride, 60° C., 5 vol. anti-solvent, 1 Hr): Soln.
Observation on outcome (ID C3, Nitromethane 50 vol., Benzotrifluoride, 60° C., 5 vol. anti-solvent, Immediate): Soln.
Observation on outcome (ID C3, Nitromethane 50 vol., Benzotrifluoride, 60° C., 10 vol. anti-solvent): Soln.
Observation on outcome (ID C3, Nitromethane 50 vol., Benzotrifluoride, 60° C., 15 vol. anti-solvent): Soln.
Observation on outcome (ID C3, Nitromethane 50 vol., Benzotrifluoride, 60° C., 20 vol. anti-solvent): Soln.
Observation on outcome (ID C4, Nitromethane 50 vol., 2-Chlorobutane, 25° C., 20 vol, 19 Hrs): Susp.
Observation on outcome (ID C4, Nitromethane 50 vol., 2-Chlorobutane, 60° C., 5 vol. anti-solvent, 1 Hr): Soln.
Observation on outcome (ID C4, Nitromethane 50 vol., 2-Chlorobutane, 60° C., 5 vol. anti-solvent, Immediate): Soln.
Observation on outcome (ID C4, Nitromethane 50 vol., 2-Chlorobutane, 60° C., 10 vol. anti-solvent): Soln.
Observation on outcome (ID C4, Nitromethane 50 vol., 2-Chlorobutane, 60° C., 15 vol. anti-solvent): Soln.
Observation on outcome (ID C4, Nitromethane 50 vol., 2-Chlorobutane, 60° C., 20 vol. anti-solvent): Soln.
Observation on outcome (ID D1, MeCN/water, 4:1 55 vol., Cyclohexane, 25° C., 20 vol, 19 Hrs): Immiscible
Observation on outcome (ID D1, MeCN/water, 4:1 55 vol., Cyclohexane, 60° C., 5 vol. anti-solvent, 1 Hr): Immiscible
Observation on outcome (ID D1, MeCN/water, 4:1 55 vol., Cyclohexane, 60° C., 5 vol. anti-solvent, Immediate): Immiscible
Observation on outcome (ID D1, MeCN/water, 4:1 55 vol., Cyclohexane, 60° C., 10 vol. anti-solvent): Immiscible
Observation on outcome (ID D2, MeCN/water, 4:1 55 vol., Heptane, 25° C., 20 vol, 19 Hrs): Bi. Susp.
Observation on outcome (ID D2, MeCN/water, 4:1 55 vol., Heptane, 60° C., 5 vol. anti-solvent, 1 Hr): Immiscible
Observation on outcome (ID D2, MeCN/water, 4:1 55 vol., Heptane, 60° C., 5 vol. anti-solvent, Immediate): Immiscible
Observation on outcome (ID D2, MeCN/water, 4:1 55 vol., Heptane, 60° C., 10 vol. anti-solvent): Immiscible
Observation on outcome (ID D3, MeCN/water, 4:1 55 vol., Benzotrifluoride, 25° C., 20 vol, 19 Hrs): Susp.
Observation on outcome (ID D3, MeCN/water, 4:1 55 vol., Benzotrifluoride, 60° C., 5 vol. anti-solvent, 1 Hr): Soln.
Observation on outcome (ID D3, MeCN/water, 4:1 55 vol., Benzotrifluoride, 60° C., 5 vol. anti-solvent, Immediate): Soln.
Observation on outcome (ID D3, MeCN/water, 4:1 55 vol., Benzotrifluoride, 60° C., 10 vol. anti-solvent): Haze
Observation on outcome (ID D3, MeCN/water, 4:1 55 vol., Benzotrifluoride, 60° C., 15 vol. anti-solvent): Immiscible
Observation on outcome (ID D3, MeCN/water, 4:1 55 vol., Benzotrifluoride, 60° C., 20 vol. anti-solvent): Immiscible
Observation on outcome (ID D4, MeCN/water, 4:1 55 vol., 2-Chlorobutane, 25° C., 20 vol, 19 Hrs): Bi. Susp.
Observation on outcome (ID D4, MeCN/water, 4:1 55 vol., 2-Chlorobutane, 60° C., 5 vol. anti-solvent, 1 Hr): Soln.
Observation on outcome (ID D4, MeCN/water, 4:1 55 vol., 2-Chlorobutane, 60° C., 5 vol. anti-solvent, Immediate): Soln.
Observation on outcome (ID D4, MeCN/water, 4:1 55 vol., 2-Chlorobutane, 60° C., 10 vol. anti-solvent): Haze
Observation on outcome (ID D4, MeCN/water, 4:1 55 vol., 2-Chlorobutane, 60° C., 15 vol. anti-solvent): Haze
Observation on outcome (ID D4, MeCN/water, 4:1 55 vol., 2-Chlorobutane, 60° C., 20 vol. anti-solvent): Haze
Crystalline Form fate by XRPD (MeCN/water, 4:1 55 vol., 2-Chlorobutane): Form A
Crystalline Form fate by XRPD (MeCN/water, 4:1 55 vol., Benzotrifluoride): Form A
Crystalline Form fate by XRPD (MeCN/water, 4:1 55 vol., Heptane): Form A
Crystalline Form fate by XRPD (Nitromethane 50 vol., 2-Chlorobutane): Form C +
Crystalline Form fate by XRPD (Nitromethane 50 vol., Benzotrifluoride): Form B
Crystalline Form fate by XRPD (Nitromethane 50 vol., Heptane): Form B
Crystalline Form fate by XRPD (THF 25 vol., 2-Chlorobutane): Form B
Crystalline Form fate by XRPD (THF 25 vol., Benzotrifluoride): Form B
Crystalline Form fate by XRPD (THF 25 vol., Heptane): Form B
Crystalline Form fate by XRPD (THF/water, 4:1 10 vol., 2-Chlorobutane): Form A
Crystalline Form fate by XRPD (THF/water, 4:1 10 vol., Benzotrifluoride): Form A
Structure (SMILES): NC(=O)c1nc(-c2c(Cl)cccc2Cl)oc1Nc1ccc(C(=O)N2CCS(=O)(=O)CC2)cc1 [Form A, 2-(2,6-dichlorophenyl)-5-[4-(1,1-dioxo-1,4-thiazinane-4-carbonyl)anilino]oxazole-4-carboxamide]
